# Data reported in paper PMC9299836 (eLife, 2022).
# Values joined by “and” are separate entries in the source; they are usually repeats but may differ in a detail not shown here. Equal entries are not always repeated.
# How the values were obtained:
# mGluR2 [1] = molecular target: mGluR2 (Mus musculus, UniProt Q14BI2, A548F); test: Live-cell FRET, azi-CRD (cysteine-rich domain) sensor in HEK293T cells; settings: for Normalized FRET response, Mean (azi-CRD agonist DRC): maximal responses normalized to 1mM glutamate
# mGluR2 (Mus musculus, UniProt Q14BI2, A548F), sequence (Q14BI2 19-872 A548F): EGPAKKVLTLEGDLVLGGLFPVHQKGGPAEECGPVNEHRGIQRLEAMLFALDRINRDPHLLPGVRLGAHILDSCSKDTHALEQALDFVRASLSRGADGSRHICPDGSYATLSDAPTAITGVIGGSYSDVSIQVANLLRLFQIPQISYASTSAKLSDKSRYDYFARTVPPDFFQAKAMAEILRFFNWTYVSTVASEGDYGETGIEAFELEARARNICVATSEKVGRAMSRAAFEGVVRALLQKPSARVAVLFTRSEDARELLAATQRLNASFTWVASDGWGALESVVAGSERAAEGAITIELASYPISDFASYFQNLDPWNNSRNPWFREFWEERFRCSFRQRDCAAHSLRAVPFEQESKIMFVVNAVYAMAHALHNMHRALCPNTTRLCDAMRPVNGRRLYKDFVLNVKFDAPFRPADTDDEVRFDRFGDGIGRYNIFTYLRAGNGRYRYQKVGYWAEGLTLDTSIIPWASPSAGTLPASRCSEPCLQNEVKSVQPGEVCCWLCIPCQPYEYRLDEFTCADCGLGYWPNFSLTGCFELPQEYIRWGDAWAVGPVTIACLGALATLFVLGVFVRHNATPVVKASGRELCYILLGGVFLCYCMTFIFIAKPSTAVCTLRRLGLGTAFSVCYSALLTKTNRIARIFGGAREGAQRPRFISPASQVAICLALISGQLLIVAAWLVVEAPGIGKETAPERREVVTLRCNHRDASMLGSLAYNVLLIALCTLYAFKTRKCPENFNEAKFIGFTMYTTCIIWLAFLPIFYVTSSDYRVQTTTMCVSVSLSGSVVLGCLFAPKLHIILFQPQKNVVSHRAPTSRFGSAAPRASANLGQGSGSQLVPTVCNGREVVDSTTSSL
# mGluR2 [2] = molecular target: T1, mGluR2 (Mus musculus, UniProt Q14BI2); test: Live-cell FRET, SNAP-m2 (VFT domain) inter-subunit sensor in HEK293T cells; settings: for Normalized FRET response, Mean (SNAP-m2 agonist DRC): maximal responses normalized to 1mM glutamate;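 for all read-outs here: apparent FRET efficiency from whole-membrane ROIs of single cells, corrected for donor bleed-through and background, ΔFRET as treatment minus pretreatment signal, recorded at room temperature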
# T1 sequence (Q14BI2 19-872): as the sequence (Q14BI2 19-872 A548F) above, with F530A counted along it
# mGluR2 [3] = molecular target: mGluR2 (Mus musculus, UniProt Q14BI2, INS715F); test: Live-cell FRET, azi-ECL2 (7TM domain, extracellular loop 2) sensor in HEK293T cells;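 note: Cy3/Cy5 click-labeled sensor, whole-membrane ROIs per cell, apparent FRET after bleed-through correction, ΔFRET as treatment minus pre-treatment signal, at room temperature, at least three biological replicates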
# mGluR2 (Mus musculus, UniProt Q14BI2, INS715F), sequence (Q14BI2 with tags, fused parts or gaps INS715F): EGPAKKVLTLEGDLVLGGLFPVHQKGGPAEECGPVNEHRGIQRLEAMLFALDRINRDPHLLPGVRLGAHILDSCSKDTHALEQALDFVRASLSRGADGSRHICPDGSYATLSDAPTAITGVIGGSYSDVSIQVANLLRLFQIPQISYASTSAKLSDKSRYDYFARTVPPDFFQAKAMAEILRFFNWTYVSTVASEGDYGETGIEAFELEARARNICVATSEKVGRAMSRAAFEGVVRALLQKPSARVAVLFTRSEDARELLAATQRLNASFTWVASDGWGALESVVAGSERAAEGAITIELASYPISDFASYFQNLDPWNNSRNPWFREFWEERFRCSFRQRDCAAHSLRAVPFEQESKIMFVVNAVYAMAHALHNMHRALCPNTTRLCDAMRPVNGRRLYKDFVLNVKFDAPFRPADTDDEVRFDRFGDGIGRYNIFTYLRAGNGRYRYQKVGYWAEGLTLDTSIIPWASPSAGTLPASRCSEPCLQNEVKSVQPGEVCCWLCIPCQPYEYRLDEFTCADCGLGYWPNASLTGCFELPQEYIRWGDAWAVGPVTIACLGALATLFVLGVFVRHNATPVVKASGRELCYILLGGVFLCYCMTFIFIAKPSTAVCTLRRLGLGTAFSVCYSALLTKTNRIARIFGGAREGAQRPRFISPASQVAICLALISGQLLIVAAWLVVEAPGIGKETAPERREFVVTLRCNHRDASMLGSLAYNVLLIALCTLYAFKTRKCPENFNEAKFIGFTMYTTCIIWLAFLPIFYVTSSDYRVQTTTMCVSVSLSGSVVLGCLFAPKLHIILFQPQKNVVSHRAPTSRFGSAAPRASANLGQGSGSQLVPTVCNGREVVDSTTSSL
# mGluR2 [4] = molecular target: T1, mGluR2; test: Functional calcium imaging, SNAP-mGluR2 (no FLAG-tag) with chimeric G protein Gqo5 in HEK293T cells; format: cell-based; set-up: Full length mGluR2 construct with an amber codon (TAG) mutation of amino acid A548 (azi-CRD) or N-terminal SNAP-tag (SNAP-mGluR2); host or cells: HEK293T; settings: for Intracellular Ca2+ response, Mean / Intracellular Ca2+ response: normalized to 1mM glutamate; for Intracellular Ca2+ response: single experiments
smiles,measurement,setting,value
N[C@@]1(C(=O)O)CO[C@H]2[C@H](C(=O)O)[C@H]21 [LY379268],EC50,"mGluR2 [1]; Live-cell FRET titration EC50, azi-CRD, agonist alone, individual experiments",12.7 nM and 14.3 nM and 9.97 nM and 8.96 nM and 10.9 nM and 13.4 nM and 14.5 nM and 16 nM and 14.4 nM and 12.2 nM and 11.3 nM and 13.2 nM and 11.7 nM and 11.4 nM and 10.4 nM and 14.2 nM and 9.03 nM and 7.75 nM
same,EC50,"mGluR2 [1]; Mean half-maximum effective concentration (EC50), azi-CRD sensor, orthosteric agonist alone, nM for LY379268 (footnote)",12.1 nM
same,Hill slope,"mGluR2 [1]; azi-CRD sensor, orthosteric agonist alone",1.36
same,Live-cell FRET max response normalized to 1mM glutamate,"mGluR2 [1]; azi-CRD sensor, LY379268, individual values (N=25)",1.396 and 1.075 and 1.11 and 1.161 and 1.042 (2×) and 1.039 and 1.015 and 1.054 and 0.99 and 1.034 and 0.9879 and 0.9896 and 1.016 and 1.007 and 1.046 and 1.009 (2×) and 0.9955 and 1.0569 and 1.003 and 0.9915 and 1.157 and 1.205 and 1.123
same,Mean max response (normalized max ΔFRET),"mGluR2 [1]; azi-CRD, agonist alone (1 mM glutamate, 100 μM DCG-IV, 20 μM LY379268, 100 μM APDC), normalized to 1 mM glutamate",1.06
same,"Normalized Max ΔFRET, Mean","mGluR2 [1]; azi-CRD, 20μM agonist, mean of cells, normalized to 1mM glutamate",106.212
same,"Normalized FRET response, Mean (azi-CRD agonist DRC)",mGluR2 [1]; log[ligand] (M) -4.69897,1.062
same,"Normalized FRET response, Mean (azi-CRD agonist DRC)",mGluR2 [1]; log[ligand] (M) -6,1.058
same,"Normalized FRET response, Mean (azi-CRD agonist DRC)",mGluR2 [1]; log[ligand] (M) -7.1549,0.9652
same,"Normalized FRET response, Mean (azi-CRD agonist DRC)",mGluR2 [1]; log[ligand] (M) -7.52288,0.8398
same,"Normalized FRET response, Mean (azi-CRD agonist DRC)",mGluR2 [1]; log[ligand] (M) -8,0.4669
same,"Normalized FRET response, Mean (azi-CRD agonist DRC)",mGluR2 [1]; log[ligand] (M) -8.39794,0.1943
same,"Normalized FRET response, Mean (azi-CRD agonist DRC)",mGluR2 [1]; log[ligand] (M) -8.82391,0.06461
same,"Normalized FRET response, Mean (azi-CRD agonist DRC)",mGluR2 [1]; log[ligand] (M) -9.52288,0.04231
same,"Normalized FRET response, Mean (azi-CRD agonist DRC)",mGluR2 [1]; log[ligand] (M) -10,0
same,Emax,"mGluR2 [2]; HEK-293T, read-out: Normalized Max ΔFRET, SNAP-m2, 20μM agonist, individual cells, normalized to 1mM glutamate",101%
same,EC50,"mGluR2 [2]; Mean half-maximum effective concentration (EC50), SNAP-m2 sensor, orthosteric agonist alone, nM for LY379268 (footnote)",30.6 nM
same,Mean max response (normalized max ΔFRET),"mGluR2 [2]; SNAP-m2 (VFT), agonist alone (1 mM glutamate, 100 μM DCG-IV, 20 μM LY379268, 100 μM APDC), normalized to 1 mM glutamate",1.01
same,"Normalized Max ΔFRET, Mean","mGluR2 [2]; SNAP-m2, 20μM agonist, mean of cells, normalized to 1mM glutamate",101.061
same,Hill slope,"mGluR2 [2]; SNAP-m2 sensor, orthosteric agonist alone",–1.12
same,Live-cell FRET max response normalized to 1mM glutamate,"mGluR2 [2]; SNAP-m2 sensor, LY379268, individual values (N=23)",0.9967 and 0.9702 and 0.9948 and 1.036 and 0.962 and 0.9651 and 1.05 (3×) and 1.035 and 1.049 and 1.015 and 0.9906 and 1.057 and 1.051 and 0.9532 and 0.9752 and 0.9335 and 1.106 and 1.013 and 0.9759 and 0.9961 and 1.019
same,"Normalized FRET response, Mean (SNAP-m2 agonist DRC)",mGluR2 [2]; log[ligand] (M) -6,-1.011
same,"Normalized FRET response, Mean (SNAP-m2 agonist DRC)",mGluR2 [2]; log[ligand] (M) -6.69897,-1.017
same,"Normalized FRET response, Mean (SNAP-m2 agonist DRC)",mGluR2 [2]; log[ligand] (M) -7.1549,-0.7975
same,"Normalized FRET response, Mean (SNAP-m2 agonist DRC)",mGluR2 [2]; log[ligand] (M) -7.52288,-0.6707
same,"Normalized FRET response, Mean (SNAP-m2 agonist DRC)",mGluR2 [2]; log[ligand] (M) -8,-0.3677
same,"Normalized FRET response, Mean (SNAP-m2 agonist DRC)",mGluR2 [2]; log[ligand] (M) -8.39794,-0.1637
same,"Normalized FRET response, Mean (SNAP-m2 agonist DRC)",mGluR2 [2]; log[ligand] (M) -8.82391,-0.07424
same,"Normalized FRET response, Mean (SNAP-m2 agonist DRC)",mGluR2 [2]; log[ligand] (M) -9.52288,-0.01697
same,"Normalized FRET response, Mean (SNAP-m2 agonist DRC)",mGluR2 [2]; log[ligand] (M) -10,-0.0059
same,"Normalized FRET response, Mean (SNAP-m2 agonist DRC)",mGluR2 [2]; log[ligand] (M) -10.699,0
same,EC50,"mGluR2 [3]; EC50, live-cell FRET titration, azi-ECL2 sensor, LY379268, individual cell values (N=9)",6.91 nM and 29 nM and 9.62 nM and 9.94 nM and 8.57 nM and 6.02 nM and 9.91 nM and 5.72 nM and 5.97 nM
same,EC50,"mGluR2 [3]; Mean half-maximum effective concentration (EC50), azi-ECL2 sensor, orthosteric agonist alone, nM for LY379268 (footnote)",10.2 nM
same,Mean max response (normalized max ΔFRET),"mGluR2 [3]; azi-ECL2, agonist alone (1 mM glutamate, 100 μM DCG-IV, 20 μM LY379268, 100 μM APDC), normalized to 1 mM glutamate",1.14
same,"Normalized ΔFRET response, Mean (agonist DRC)","mGluR2 [3]; azi-ECL2, log[agonist] (M) -4.69897, normalized to 1 mM glutamate",1.14
same,"Normalized ΔFRET response, Mean (agonist DRC)","mGluR2 [3]; azi-ECL2, log[agonist] (M) -6, normalized to 1 mM glutamate",1.108
same,"Normalized ΔFRET response, Mean (agonist DRC)","mGluR2 [3]; azi-ECL2, log[agonist] (M) -7.1549, normalized to 1 mM glutamate",1.024
same,"Normalized ΔFRET response, Mean (agonist DRC)","mGluR2 [3]; azi-ECL2, log[agonist] (M) -7.52288, normalized to 1 mM glutamate",0.9098
same,"Normalized ΔFRET response, Mean (agonist DRC)","mGluR2 [3]; azi-ECL2, log[agonist] (M) -8, normalized to 1 mM glutamate",0.6174
same,"Normalized ΔFRET response, Mean (agonist DRC)","mGluR2 [3]; azi-ECL2, log[agonist] (M) -8.39794, normalized to 1 mM glutamate",0.327
same,"Normalized ΔFRET response, Mean (agonist DRC)","mGluR2 [3]; azi-ECL2, log[agonist] (M) -8.82391, normalized to 1 mM glutamate",0.1901
same,"Normalized ΔFRET response, Mean (agonist DRC)","mGluR2 [3]; azi-ECL2, log[agonist] (M) -9.52288, normalized to 1 mM glutamate",0.0544
same,"Normalized ΔFRET response, Mean (agonist DRC)","mGluR2 [3]; azi-ECL2, log[agonist] (M) -10, normalized to 1 mM glutamate",0
same,"Normalized ΔFRET response, Mean (agonist DRC)","mGluR2 [3]; azi-ECL2, log[agonist] (M) -10.699, normalized to 1 mM glutamate",0
same,"Normalized Max ΔFRET, Mean","mGluR2 [3]; azi-ECL2, 20μM agonist, mean of cells, normalized to 1mM glutamate",114.025
same,Hill slope,"mGluR2 [3]; azi-ECL2 sensor, orthosteric agonist alone",1.03
same,Live-cell FRET max response normalized to 1mM glutamate,"mGluR2 [3]; azi-ECL2 sensor, LY379268, individual values (N=22)",0.9523 and 0.965 and 0.9976 and 1.05 and 1.063 and 1.017 and 1.16 and 1.1 and 1.538 and 1.083 and 1.3913 and 1.033 and 1.4421 and 1.297 and 1.208 and 1.454 and 1.223 and 1.042 and 0.9949 and 1.12 and 0.9608 and 0.9946
same,"Normalized Max Intracellular Ca2+ Response, individual experiments","mGluR2 [4]; 100 μM DCG-IV, 10 μM LY379268, 300 μM APDC, normalized to 1 mM glutamate, single replicate",1.134 and 1.073 and 0.9696
same,"Normalized Max Intracellular Ca2+ Response, mean","mGluR2 [4]; 1 mM Glu, 100 μM DCG-IV, 10 μM LY379268, 300 μM APDC, normalized to 1 mM glutamate",1.059
same,"Intracellular Ca2+ response, Mean",mGluR2 [4]; log[agonist] (M) -5,1.059
same,Intracellular Ca2+ response,mGluR2 [4]; log[agonist] (M) -5,1.059
same,"Intracellular Ca2+ response, Mean",mGluR2 [4]; log[agonist] (M) -5.30103,1.029
same,Intracellular Ca2+ response,mGluR2 [4]; log[agonist] (M) -5.30103,1.067 and 1.001 and 1.018
same,"Intracellular Ca2+ response, Mean",mGluR2 [4]; log[agonist] (M) -5.69897,1.028
same,Intracellular Ca2+ response,mGluR2 [4]; log[agonist] (M) -5.69897,0.9461 and 1.043 and 1.094
same,"Intracellular Ca2+ response, Mean",mGluR2 [4]; log[agonist] (M) -6,1.014
same,Intracellular Ca2+ response,mGluR2 [4]; log[agonist] (M) -6,0.8943 and 1.055 and 1.093
same,"Intracellular Ca2+ response, Mean",mGluR2 [4]; log[agonist] (M) -6.60206,0.8831
same,Intracellular Ca2+ response,mGluR2 [4]; log[agonist] (M) -6.60206,0.7751 and 0.9366 and 0.9375
same,"Intracellular Ca2+ response, Mean",mGluR2 [4]; log[agonist] (M) -7.1549,0.4554
same,Intracellular Ca2+ response,mGluR2 [4]; log[agonist] (M) -7.1549,0.4206 and 0.5128 and 0.4328
same,"Intracellular Ca2+ response, Mean",mGluR2 [4]; log[agonist] (M) -7.52288,0.1775
same,Intracellular Ca2+ response,mGluR2 [4]; log[agonist] (M) -7.52288,0.2096 and 0.1787 and 0.1441
same,"Intracellular Ca2+ response, Mean",mGluR2 [4]; log[agonist] (M) -8,0.00736
same,"Intracellular Ca2+ response, Mean",mGluR2 [4]; log[agonist] (M) -8.39794,0
same,Intracellular Ca2+ response,mGluR2 [4]; log[agonist] (M) -8.39794,0
same,"Intracellular Ca2+ response, Mean",mGluR2 [4]; log[agonist] (M) -8.82391,0
same,Intracellular Ca2+ response,mGluR2 [4]; log[agonist] (M) -8.82391,0
same,"Intracellular Ca2+ response, Mean",mGluR2 [4]; log[agonist] (M) -9.52288,0
same,Intracellular Ca2+ response,mGluR2 [4]; log[agonist] (M) -9.52288,0
same,"Intracellular Ca2+ response, Mean",mGluR2 [4]; log[agonist] (M) -10,0
same,Intracellular Ca2+ response,mGluR2 [4]; log[agonist] (M) -10,0
same,EC50,"mGluR2 [4]; one value per experiment, read-out: EC50, intracellular Ca2+ response",84.9 nM and 98.9 nM and 71 nM
